In ChEMBL document CHEMBL1138433, “New indole alkaloids from the North Sea bacterium Vibrio parahaemolyticus Bio249” (J Nat Prod, 2003):
Activity calls are given as the source filed them.

Assays:
Type in all cases: functional, organism-based
Escherichia coli = assay: Antibacterial activity against Escherichia coli by agar diffusion method
Staphylococcus aureus = assay: Antibacterial activity against Staphylococcus aureus by agar diffusion method
Bacillus subtilis = assay: Antibacterial activity against Bacillus subtilis by agar diffusion method
[1] = system: Streptomyces viridochromogenes; assay: Antibacterial activity against Streptomyces viridochromogenes by agar diffusion method
Candida albicans = assay: Antifungal activity against Candida albicans by agar diffusion method
Rhizomucor miehei = assay: Antifungal activity against Mucor miehei by agar diffusion method

Measured: Activity

CC(=O)C(C)(c1c[nH]c2ccccc12)c1c[nH]c2ccccc12
inactive: Escherichia coli | Staphylococcus aureus | Bacillus subtilis | [1] | Candida albicans | Rhizomucor miehei

CC(CC(c1c[nH]c2ccccc12)c1c[nH]c2ccccc12)c1c[nH]c2ccccc12 (centres undefined)
inactive: Escherichia coli | Staphylococcus aureus | Bacillus subtilis | [1] | Candida albicans | Rhizomucor miehei

c1ccc2c(C(c3c[nH]c4ccccc34)c3c[nH]c4ccccc34)c[nH]c2c1
inactive: Escherichia coli | Staphylococcus aureus | Bacillus subtilis | [1] | Candida albicans | Rhizomucor miehei

c1ccc2c(Cc3c[nH]c4ccccc34)c[nH]c2c1
inactive: Escherichia coli | Staphylococcus aureus | Bacillus subtilis | [1] | Candida albicans | Rhizomucor miehei
